Reference: patent US20120046246A1, “METHODS FOR TREATING OSTEOCLAST-RELATED DISEASE, COMPOUNDS AND COMPOSITIONS THEREOF” (University of Florida Research Foundation, priority 2008, published 2012)
Where two headings read alike, the source gives them in different places.

How the values were obtained:
[1] = target: T1, interaction between recombinantly-expressed B2 subunit and pure rabbit muscle F-actin (Homo sapiens, UniProt P21281); assay: pelleting assay of B subunit binding to F-actin
T1 construct: made in house
T1 sequence (P21281 whole entry): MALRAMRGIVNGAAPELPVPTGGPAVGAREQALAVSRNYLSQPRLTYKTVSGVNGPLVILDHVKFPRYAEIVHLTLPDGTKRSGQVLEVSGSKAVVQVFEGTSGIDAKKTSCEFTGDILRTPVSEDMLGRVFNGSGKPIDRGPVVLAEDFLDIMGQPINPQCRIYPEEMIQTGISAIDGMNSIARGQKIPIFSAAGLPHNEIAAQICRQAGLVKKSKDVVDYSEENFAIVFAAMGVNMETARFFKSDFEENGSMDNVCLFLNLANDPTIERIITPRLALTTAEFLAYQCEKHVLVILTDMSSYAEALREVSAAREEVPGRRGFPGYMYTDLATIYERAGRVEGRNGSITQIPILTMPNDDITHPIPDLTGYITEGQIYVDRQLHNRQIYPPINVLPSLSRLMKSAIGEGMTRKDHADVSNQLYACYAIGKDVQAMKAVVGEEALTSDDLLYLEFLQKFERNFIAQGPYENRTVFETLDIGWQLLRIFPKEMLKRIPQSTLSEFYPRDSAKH
Description: Twenty-one small molecules are tested for their ability to block interaction between recombinantly-expressed B2 subunit and pure rabbit muscle F-actin.
Recombinant B subunit (1 μM) plus/minus F-actin (2 μM)) plus/minus 100 uM inhibitor compounds were incubated for 10 minutes in 20 mM Tris/HCl (pH 7.5), 100 mM NaCl, 1 mM MgCl2, 0.2 mM CaCl2, 0.5 mM ATP, 0.2 mM DTT, then subjected to ultracentrifugation at 180,000×g for 45 min. Supernatants and pellets were collected in SDS-PAGE sample buffer, separated by SDS-PAGE, stained with Coomassie Blue, and densitometry was performed using a Flurchem 8000 (Alpha Innotech, San Leandro Calif.).
The percent inhibition was determined by densitometry of SDS-PAGE gels. The raw densitometric number obtained of the recombinant B subunit band that was pelleted with F-actin, but with no compound present, represented 0% inhibition. The amount of the raw densitometric number of the amount of recombinant B subunit that pelleted with no actin present, but with compound, represented 100% inhibition. The amount of recombinant B subunit that pelleted with actin and the compound being tested was placed as a percentage assuming a linear response.

[2] = test system: osteoclast formation in calcitriol-stimulated mouse marrow cultures; assay: osteoclastogenesis stimulated by calcitriol in mouse marrow cultures; type: cell-based; details: concentration not given
Description: Enoxacin and Binhib 2 were then tested for their effects on osteoclastogenesis stimulated by calcitriol in mouse marrow cultures. The mixed cultures represent a model for the complex interactions that regulate bone resorption in vivo. […] Osteoclast and osteoblast-containing mouse bone marrow cultures are obtained as above described. 4-6-week-old Swiss-Webster mice (Harlan, Indianapolis, Ind.) are sacrificed by cervical dislocation. Femurs and tibias are dissected free of adherent tissue; the marrow is expelled by cutting both bone ends and flushing the marrow cavity with MEM D10 using a 25-gauge needle. The marrow cells are washed twice and plated in 6 well plates at a concentration of 1×10^6 nucleated cells/cm^2 in MEM D1 0 containing 10 nM calcitriol. Cultures are fed on the third and fifth day of culture by replacing half of the medium with fresh medium containing calcitriol. Cultures are treated with enoxacin at 10 μM or vehicle control on Day 1, and when the media is refreshed.

[3] = test system: mature osteoclasts on bone slices; assay: ruffled membrane formation / V-ATPase trafficking in mature osteoclasts on bone slices (anti-E subunit antibody); type: cell-based; details: concentration not given
Description: FIG. 7 depicts that enoxacin (10 μM) blocks ruffled membrane formation. Mature osteoclasts on bone slices were treated with enoxacin or vehicle control for 3 days, then fixed and labeled with an anti-E subunit antibody. […] Arrows point to representative osteoclasts; The present inventors also tested the effects of enoxacin on osteoclasts that were already mature and loaded onto bone slices. In this experiment, mature osteoclasts on bone slices were treated with enoxacin or vehicle control for 3 days, then fixed and labeled with an anti-E subunit antibody. Control osteoclasts produced many ruffled membranes.

[4] = 100 uM inhibitor compound, recombinant B subunit 1 μM, F-actin 2 μM, densitometry of SDS-PAGE gels
[5] = 100 uM inhibitor compound, recombinant B subunit 1 μM, F-actin 2 μM, densitometry of SDS-PAGE gels, read-out: % inhibition

Molecule	% inhibition [1, 4]	inhibition at 100 µM [1, 5]	also measured
CN1N(C)C12CCC1(C)C(CCC3C1CCC1(C)C3CCC1(C)O)C2 (stereo not shown) [Binhib 3, 1′,2′,10,13,17-pentamethylhexadecahydrospiro[cyclopenta[a]phenanthrene-3,3′-diaziridin]-17-ol]	–	–	inhibition at 100 µM [1]: 7%
CCOC(=O)C(Cc1c[nH]c2ccccc12)NCCN (stereo not shown) [Binhib 5, ethyl 2-((2-aminoethyl)amino)-3-(1H-indol-3-yl)propanoate]	–	0%	–
Brc1ccc(C[N+]23CN4CN(CN(C4)C2)C3)cc1.[Br-] [Binhib 9, 3-(5,7-Triaza-1-azoniatricyclo[3.3.1.13,7]decane) (1-[(4-bromophenyl)methyl])bromide]	21%	–	–
BrC=C(Br)C[N+]12CN3CN(CN(C3)C1)C2 [Binhib 18, 1-(2,3-dibromo-2-propenyl)-15,3,5,7-tetraazatricyclo[3.3.1.1˜3,7˜]decane]	2%	–	–
O=C(C[N+]12CN3CN(CN(C3)C1)C2)c1ccc(Br)cc1 [Binhib 24, 1-(4-bromophenyl)-2-(15,3,5,7-tetraazatricyclo[3.3.1.1˜3,7˜]dec-1-yl)ethanone]	13%	–	–
C=C1C23C(CCCC2NC)CCC2(C)C4C(C(C)=O)C(O)CC4(C)CCC123 (stereo not shown) [Binhib 26, 1-(2-hydroxy-3a,12a-dimethyl-7-(methylamino)-6-methylenehexadecahydro-cyclopenta[a]cyclopropa[e]phenanthren-1-yl)ethanone]	–	0%	–
Cc1nc2ccccc2cc1C[N+]12CN3CN(CN(C3)C1)C2 [Binhib 30, 1-((2-methyl-3-quinolinyl)methyl)-15,3,5,7-tetraazatricyclo[3.3.1.1˜3,7˜]decane]	4%	–	–
COC(=O)C1CC23CCCN4CCC5(c6cccc(OC)c6N(C=O)C15CC2)C43 (stereo not shown) [Binhib 35, methyl 1-formyl-17-methoxyaspidofractinine-3-carboxylate]	4%	–	–

Continued, in another order:

% inhibition [1, 4]	inhibition at 100 µM [1, 5]	Molecule	also measured
1%	–	2,4-diamino-5-(4-((2-aminoethyl)amino)-3-(hydroxy(oxido)amino)phenyl)-6-ethylpyrimidine [Binhib 33]	–
0%	–	2-((4-methyl-1-piperazinyl)methyl)-15-indeno[1,2,3-de]quinazolin-1-ol [Binhib 15]	–
5%	–	Clc1cc(Cl)c(C[N+]23CN4CN(CN(C4)C2)C3)cc1Cl.[Cl-] [Binhib 1, {3,5,7-Triaza-1-azoniatricyclo[3.3.1.13,7]decane}{1-[(2,}4,5-trichlorophenyl)methyl]-, chloride]	–
–	65%	O=C(C[N+]12CN3CN(CN(C3)C1)C2)c1ccc(Cl)cc1.[I-] [Binhib 2, 3,5,7-triaza-1-azoniatricyclo[3.3.1.13,7]decane, 1-[2-(4-chlorophenyl)-2-oxoethyl]-iodide]	osteoclast formation [2]: without affecting; ruffled membrane formation [3]: blocks; B subunit actin interactions in vitro [1]: inhibits
3%	–	ON=C(C[N+]12CN3CN(CN(C3)C1)C2)c1ccc(I)cc1 [Binhib 10, 1-(4-iodophenyl)-2-(15,3,5,7-tetraazatricyclo[3.3.1.1˜3,7˜]dec-1-yl)ethanone oxime]	–
–	0%	COc1cccc(CN2CCN(N)CC2)c1 [Binhib 17, 4-(3-methoxybenzyl)-1-piperazinamine]	–
5%	–	CC(C)Cc1ccc(C[N+]23CN4CN(CN(C4)C2)C3)cc1 [Binhib 20, 1-(4-isobutylbenzyl)-15,3,5,7-tetraazatricyclo[3.3.1.1˜3,7˜]decane]	–
–	2%	Cn1c(=O)c2nc(SSc3nc4c(=O)n(C)c(=O)n(C)c4[nH]3)[nH]c2n(C)c1=O [Binhib 31, 8,8′-disulfanediylbis(1,3-dimethyl-1H-purine-2,6(3H,9H)-dione)]	–
0%	–	O=C(C[N+]12CN3CN(CN(C3)C1)C2)c1ccc2ccccc2c1 [Binhib 36, 1-(2-naphthyl)-2-(15,3,5,7-tetraazatricyclo[3.3.1.1˜3,7˜]dec-1-yl)ethanone]	–
–	3%	S=C(S)NCCN1CCNCC1 [Binhib 38, 2-(1-piperazinyl)ethylcarbamodithioic acid]	–
4%	–	COc1ccc(C(=O)C[N+]23CN4CN(CN(C4)C2)C3)cc1 [Binhib 41, 1-(4-methoxyphenyl)-2-(15,3,5,7-tetraazatricyclo[3.3.1.1˜3,7˜]dec-1-yl)ethanone]	–
